These results are taken from patent publication EP2801573A1, “Hydantoine derivatives as CD38 inhibitors” (SANOFI, priority 2013, dated 2014).

Structures are written as SMILES.

In test [1] the target is T1, human recombinant CD38 enzyme (Homo sapiens, UniProt P28907).
T1 construct: purchased R&D Systems H7006
T1 sequence (P28907 1-300): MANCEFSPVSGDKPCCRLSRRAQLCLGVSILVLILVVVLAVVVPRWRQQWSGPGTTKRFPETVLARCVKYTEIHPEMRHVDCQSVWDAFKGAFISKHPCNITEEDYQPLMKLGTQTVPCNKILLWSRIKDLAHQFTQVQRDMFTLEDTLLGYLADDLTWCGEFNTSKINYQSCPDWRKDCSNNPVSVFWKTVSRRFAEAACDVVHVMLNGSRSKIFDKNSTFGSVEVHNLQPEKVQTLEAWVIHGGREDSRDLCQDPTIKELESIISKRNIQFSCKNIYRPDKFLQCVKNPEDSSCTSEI
Description: Human recombinant enzyme assay (fluorimetric CD38 enzyme assay, ε-NAD substrate). Format: biochemical. As to conditions: recombinant CD38 100 ng/ml, ε-NAD 100 µM, pH = 6.0, 37°C, reaction time 30 min; read-out: IC50 (nM) ENAD. The method, then:
Enzyme assay on human recombinant CD38 enzyme were performed in order to determine the in vitro potency of the newly synthesized compounds. IC50 values were determined for the test compounds and used to explore the structure-activity relationships (SAR).
(§1) N6-etheno-NAD (ε-NAD), a NAD analogue previously shown to be a convenient substrate of CD38 enzyme activity (Graeff et al. J. Biol. Chem. 269, pp 30260-30367, […]) was used to measure the activity of human recombinant CD38 and cell surface enzyme activity.
A fluorimetric CD38 enzyme assay was performed as described by Graeff et al. The reaction was started with 10 µl of N6-etheno-NAD (ε-NAD) substrate, final concentration 100 µM, in a final volume of 0.1 ml buffered with 50 mM HEPES, 0.05% BRIJ, pH = 6.0 containing 100 ng/ml recombinant CD38 (R&D Systems, H7006). Cleavage of ε-NAD, which causes a 10-fold fluorescence enhancement, was continuously followed at 37°C in a BMG Polarstar spectrofluorometer at an emission wavelength of 410 nm and an excitation of 300 nm, reaction time was 30 min. NADase activity was expressed as Δ relative fluorescence/min. The rate of enzyme reactions were compared in the presence and absence of inhibitor molecule, the IC50 values were calculated with Biostat Speed program.

Test [2] concerns the target T2, natural cell surface human CD38 enzyme (Homo sapiens, UniProt P28907).
T2 construct: The A549 cells express active CD38 enzyme on the cell surface; endogenous in cells; host or cells: A549 human lung epithelial cells (ATCC CCL 185)
T2 sequence (P28907 1-300): T1 sequence (P28907 1-300)
The test can be described thus: Cell surface enzyme assay on A549 cells. Format: cell-based. As to conditions: A549 human lung epithelial cells, pre-incubated 15 min, ε-NAD 100 µM, 60 min, pH=7.4. The method, then: A549 human lung epithelial cells were used as enzyme source. The A549 cells express active CD38 enzyme on the cell surface.
as §1
Type II-like human lung epithelial cells A 549 (ATCC CCL 185) were grown in RPMI 1640 medium supplemented with 10% fetal calf serum, 2mM 1-glutamine and penicillin/streptomycin 1% in a humidified incubator with an atmosphere of 95% air and 5% CO2 at 37 °C. At about 70-80% confluence, cells were detached with trypsin/EDTA solution to form a cell suspension and counted. Cell viability was higher as 95% using trypan blue dye. Cells were plated at a density of 500.000 cells/well (24 well plate), before 24 hours of starting the enzyme assay. The medium was removed and replaced by assay buffer (20 mM HEPES, pH=7.4 containing 140 mM NaCl, 5 mM KCl, 1 mM MgSO4 1 mM CaCl2, 1mM Na2HPO4, 5.5 mM glucose).
A549 cells (800.000/well, 500 µl) were pre-incubated in the presence and absence of inhibitors for 15 min before the addition of ε-NAD, final substrate concentration was 100 µM. After 60 min, the plate was centrifuged and 100 µl of supernatant was removed and measured fluorimetrically in BMG Polarstar spectrofluorimeter at an emission wavelength of 410 nm and an excitation of 300 nm. The mean difference in the fluorescence between reaction stopped at 0 and 60 min was used an arbitrary unit of NADase activity. The NADase activity in the absence and presence of inhibitors were compared and IC50 values were calculated.

Broadly, the IC50 is the concentration at which inhibition is half-maximal. Turning to `O=C1N/C(=C\c2ccncc2)C(=O)N1CC1CCCO1` (stereo not drawn) [Compound 60, 5-[1-Pyridin-4-yl-meth-(Z)-ylidene]-3-(tetrahydro-furan-2-ylmethyl)-imidazolidine-2,4-dione], the IC50 is 22 nM in test [1] and 81.8 nM in test [2].

For the compound `CC(C)(O)CN1C(=O)N/C(=C\c2ccncc2)C1=O` [Compound 61, 3-(2-Hydroxy-2-methyl-propyl)-5-[1-pyridin-4-yl-meth-(Z)-ylidene]-imidazolidine-2,4-dione], the IC50 is 25 nM in test [1] and 288 nM in test [2].

With `O=C1N/C(=C\c2ccncc2)C(=O)N1CC(F)(F)F` [Compound 62, 5-[1-Pyridin-4-yl-meth-(Z)-ylidene]-3-(2,2,2-trifluoro-ethyl)-imidazolidine-2,4-dione], the results for the IC50 in test [1] and in test [2] were 57 nM and 604 nM, respectively.
